Reference: PMC12735739, “Bromo Analogues of Active 3,4,5,4′-Tetramethoxy-trans-stilbene (DMU-212)—A New Path of Research to Anticancer Agents” (Molecules, 2025)
Converted amounts (≈) assume the structure as drawn.

Experiments:
[1] = tested on: Balb-3T3 mice fibroblast; assay: MTT cell viability assay, Balb-3T3; format: cell-based; conditions: Mus musculus, MTT test, 72 h of action, read-out: IC50, Pseudo-Normal Cell Lines, Balb-3T3 Mice Fibroblast
Description: (§1) The MTT cell viability assay was performed according to a previously reported protocol. Briefly, adherent cells were seeded at a density of 5000 cells per 100 µL, and suspension cells at 25,000 cells per 100 µL, in 96-well plates and incubated overnight. Subsequently, test compounds were added in 100 µL of culture medium, followed by incubation for 72 h. After treatment, 20 µL of MTT solution (5 mg/mL, Sigma-Aldrich, Burlington, MA, USA) was added to each well. The resulting formazan crystals were dissolved in DMSO (Sigma-Aldrich, Burlington, MA, USA), and absorbance was recorded using a BioTek ELx800 Absorbance Reader (BioTek Instruments, Inc., Vinooski, VT, USA). IC50 values were calculated by nonlinear regression analysis using GraphPad Prism (version 9.1.1, GraphPad Software, Boston, MA, USA). Experiments were conducted in triplicate. Human leukemia Jurkat T-cells, human glioblastoma U251 cells were kindly provided by Collection at the Institute of Molecular Biology and Genetics, National Academy of Sciences of Ukraine (Kyiv, Ukraine). Murine macrophages of J774.2 line were a generous gift from Prof. Sir John Vane (William Harvey Research Institute, London, UK) provided via Prof. Janusz Marcinkiewicz (Jagiellonian University Medical College, Krakow, Poland). Human colorectal adenocarcinoma cell line HT-29 was kindly provided by Prof. Anna Bielawska (Department of Biotechnology, Faculty of Pharmacy, Medical University of Bialystok, Poland). Murine BALB/3T3 fibroblasts was obtained from the Cell Collection of the R.E. Kavetsky Institute of Experimental Pathology, Oncology and Radiobiology (Kyiv, Ukraine).

[2] = tested on: prostate DU-145; parameters: method as in PMID 15943482; conditions: cited from earlier work
[3] = tested on: neuroblast SK-N-SH; parameters: method as in PMID 15943482; conditions: cited from earlier work
[4] = tested on: J744.2 mice macrophage-like cells; assay: MTT cell viability assay, J744.2; format: cell-based; conditions: Mus musculus; MTT test, 72 h of action; read-out: IC50, Pseudo-Normal Cell Lines, J744.2 Mice Macrophage-Like Cells
Description: as §1

[5] = tested on: Jurkat human acute T-cell leukaemia; assay: MTT cell viability assay, Jurkat; format: cell-based; conditions: MTT test, 72 h of action, read-out: IC50, Tumour Cell Lines, Jurkat Human Acute T-Cell Leukaemia
Description: as §1

[6] = tested on: lung-NSC NCI-H460; parameters: method as in PMID 15943482; conditions: cited from earlier work
[7] = tested on: pancreas BXPC-3; parameters: method as in PMID 15943482; conditions: cited from earlier work
[8] = tested on: salmon sperm DNA; assay: DNA intercalation assay (methyl green displacement method); format: binding; conditions: 1 and 10 μM
Description: To investigate the potential mechanisms of cell death induced by the studied derivative, we evaluated apoptosis using the fluorescence microscopy of cells stained with Hoechst-33342 and Ethidium Bromide (EtBr), as well as spectroscopic and DNA/methyl green displacement assays. Methyl green is a cationic dye that binds preferentially to the phosphate backbone of DNA (primarily in the major groove). If a compound (an intercalator or groove-binding agent) is added, it can compete with methyl green for binding to DNA. The higher the percentage of substituted methyl green, the stronger the compound interacts with DNA. Intercalation is the key feature of clinically used antitumor drugs, e.g., doxorubicin (DOX). DOX displaced 41.62–45.52% of methyl green from its complex with DNA (Figure 10). Another intercalator, EtBr, replaced 42.12–47.35% of methyl green from its complex with DNA.
A 485 μL aliquot of salmon sperm DNA (50 μg/mL, Sigma-Aldrich, Burlington, MA, USA) was incubated with 15 μL of methyl green solution (1 mg/mL, Sigma-Aldrich, Burlington, MA, USA) at 37 °C for 1 h. Subsequently, 500 μL of the test compounds, doxorubicin, or ethidium bromide (each at final concentrations of 1 μM and 10 μM) was added to the preformed methyl green–DNA complex. The samples were further incubated at 37 °C for 2 h in the dark. Absorbance was then recorded at 630 nm. GraphPad Prism (version 9.1.1, GraphPad Software, Boston, MA, USA) was used for the results analysis. Experiments were conducted in triplicate. Doxorubicin and ethidium bromide were purchased from Sigma-Aldrich, USA.

[9] = tested on: HT-29 human colorectal carcinoma; assay: MTT cell viability assay, HT-29; format: cell-based; conditions: MTT test, 72 h of action, read-out: IC50, Tumour Cell Lines, HT-29 Human Colorectal Carcinoma
Description: as §1

[10] = tested on: U251 human malignant glioblastoma; assay: MTT cell viability assay, U251; format: cell-based; conditions: U-251, MTT test, 72 h of action, read-out: IC50, Tumour Cell Lines, U251 Human Malignant Glioblastoma
Description: as §1

[11] = tested on: Jurkat cells; assay: Fluorescent microscopy of Jurkat cells (Hoechst 33342/EtBr staining); format: cell-based, human; conditions: 0.5 µM, 24 h
Description: Jurkat cells were seeded in 24-well plates at a density of 250,000 cells/mL and incubated overnight prior to treatment. Cells were then treated for 24 h with compounds 4, 7, and 8 (0.5 µM) or doxorubicin (0.5 µM) as a positive control. Following treatment, cells were stained with Hoechst 33342 (0.2–0.5 µg/mL; Sigma-Aldrich, USA) and ethidium bromide (EtBr, 1 µg/mL). Fluorescence imaging was performed using a LIM-400 microscope (LABEX INSTRUMENT LIMITED, Ningbo, China) equipped with an MTR3CCD camera. Images were captured and analysed using ImageView software (version 4.11.21522.20221011).

COc1ccc(/C=C/c2cc(OC)c(OC)c(OC)c2)cc1Br [Compound 4, 3-bromo-3′,4′,5′,4-tetramethoxy-trans-stilbene]
IC50 [1]: 2.85 µM | GI50 prostate DU-145 [2]: 0.45 µg/mL (≈ 1.19 µM) | GI50 neuroblast SK-N-SH [3]: 0.40 µg/mL (≈ 1.05 µM) | IC50 [4]: 5.21 µM | IC50 [5]: 0.76 µM | GI50 lung-NSC NCI-H460 [6]: 0.36 µg/mL (≈ 0.949 µM) | GI50 pancreas BXPC-3 [7]: 0.34 µg/mL (≈ 0.897 µM) | percentage of methyl green dye replaced from its complex with DNA ([8]; range over both doses): 1.87–5.98% | affinity for DNA ([8]; methyl green displacement, in words): low affinity for DNA | IC50 [9]: > 100 µM | IC50 [10]: > 100 µM | effect on cell morphology and viability (apoptosis, chromatin condensation, DNA fragmentation) [11]: induced moderate apoptosis
